According to paper PMC4965013, “Open Source Drug Discovery with the Malaria Box Compound Collection for Neglected Diseases and Beyond” (PLoS Pathogens, 2016):

Columns and labels:
[1] = system: P. falciparum 3D7 trophozoites; experiment: Metabolomic fingerprint profiling LC-MS; type: cell-based, Plasmodium falciparum; set-up: UDP-D-glucose / ADP-D-glucose: unit not given here; details: for Acetyllysine / N-acetyl-L-ornithine / N-carbamoyl-L-aspartate / NADPH / dAMP / dCMP / dTDP / dTMP / dTTP / dihydroorotate / orotate / DLH / DLS/SDL/SID / PD / PEE / PVNF / 3-phosphoglycerate / ADP-D-glucose / ATP / CDP / D-sedoheptulose-1/7-phosphate / FAD / GMP / NAD+ / NADP+ / Octoluse Bisphosphate / Pyroglutamic acid / UDP-D-glucose / UDP-D-glucuronate / UDP-N-acetyl-glucosamine / UDP / UMP / UTP / a-ketoglutarate / citrate/isocitrate / cytidine / dATP / dGMP/AMP / fumarate / glucose-1/6-phosphate / glycerate / guanine / guanosine / hypoxanthine / indole / inosine / nicotinate / ornithine / phosphoenolpyruvate / pyruvate / ribose-phosphate / sarcosine/alanine / sn-glycerol-3-phosphate / succinate/methylmalonic acid / uridine / xanthosine: S2 Table Metabolomics; for Acetyllysine: metabolite Acetyllysine; for N-acetyl-L-ornithine: metabolite N-acetyl-L-ornithine; for N-carbamoyl-L-aspartate: metabolite N-carbamoyl-L-aspartate; for NADPH: metabolite NADPH; for dAMP: metabolite dAMP; for dCMP: metabolite dCMP; for dTDP: metabolite dTDP; for dTMP: metabolite dTMP; for dTTP: metabolite dTTP; for dihydroorotate: metabolite dihydroorotate; for orotate: metabolite orotate; for DLH: peptide DLH; for DLS/SDL/SID: peptide DLS/SDL/SID; for PD: peptide PD; for PEE: peptide PEE; for PVNF: peptide PVNF; for 3-phosphoglycerate: metabolite 3-phosphoglycerate; for ADP-D-glucose: metabolite ADP-D-glucose; for ATP: metabolite ATP; for CDP: metabolite CDP; for CDP / D-sedoheptulose-1/7-phosphate / GMP / Octoluse Bisphosphate / UDP / UMP / UTP / citrate/isocitrate / dGMP/AMP / fumarate / glucose-1/6-phosphate / glycerate / guanine / guanosine / inosine / pyruvate / sarcosine/alanine / succinate/methylmalonic acid / uridine / xanthosine: change in metabolite level after compound treatment; for D-sedoheptulose-1/7-phosphate: metabolite D-sedoheptulose-1/7-phosphate; for FAD: metabolite FAD; for GMP: metabolite GMP; for NAD+: metabolite NAD+; for NADP+: metabolite NADP+; for Octoluse Bisphosphate: metabolite Octoluse Bisphosphate; for Pyroglutamic acid: metabolite Pyroglutamic acid; for UDP-D-glucose: metabolite UDP-D-glucose; for UDP-D-glucuronate: metabolite UDP-D-glucuronate; for UDP-N-acetyl-glucosamine: metabolite UDP-N-acetyl-glucosamine; for UDP: metabolite UDP; for UMP: metabolite UMP; for UTP: metabolite UTP; for a-ketoglutarate: metabolite a-ketoglutarate; for citrate/isocitrate: metabolite citrate/isocitrate; for cytidine: metabolite cytidine; for dATP: metabolite dATP; for dGMP/AMP: metabolite dGMP/AMP; for fumarate: metabolite fumarate; for glucose-1/6-phosphate: metabolite glucose-1/6-phosphate; for glycerate: metabolite glycerate; for guanine: metabolite guanine; for guanosine: metabolite guanosine; for hypoxanthine: metabolite hypoxanthine; for indole: metabolite indole; for inosine: metabolite inosine; for 2_3-Diphosphoglyceric acid / 4-phosphopantothenate / 6-phospho-D-gluconate / FMN / IMP / Pyrophosphate / Sedoheptoluse bisphosphate / cyclic-AMP / glutathione disulfide / lactate / myo-inositol: metabolite level change after treatment; for nicotinate: metabolite nicotinate; for ornithine: metabolite ornithine; for phosphoenolpyruvate: metabolite phosphoenolpyruvate; for pyruvate: metabolite pyruvate; for ribose-phosphate: metabolite ribose-phosphate; for sarcosine/alanine: metabolite sarcosine/alanine; for sn-glycerol-3-phosphate: metabolite sn-glycerol-3-phosphate; for succinate/methylmalonic acid: metabolite succinate/methylmalonic acid; for uridine: metabolite uridine; for xanthosine: metabolite xanthosine
P. falciparum = experiment: EC50 listed in S2 Table Metabolomics (used to set the concentration tested); type: cell-based; details: Plasmodium falciparum; EC50 used for Factor_XEC50 in metabolomics; read-out: EC50_nM

Question: Which Acetyllysine [1] does the source give for `CC1CN(C(=O)c2sc3ccccc3c2Cl)CC(C)O1` (stereo not shown) [MMV020492] here?
Answer: -0.0147

Question: And the N-acetyl-L-ornithine [1]?
Answer: -0.05191

Question: And the N-carbamoyl-L-aspartate [1]?
Answer: 0.1461

Question: What about the NADPH [1] of the same compound?
Answer: 1.076

Question: And the dAMP [1]?
Answer: 0.05557

Question: And the dCMP [1]?
Answer: 0.1257

Question: And the dTDP [1]?
Answer: 0.2505

Question: What about the dTMP [1] of the same compound?
Answer: 0.3742

Question: And the dTTP [1]?
Answer: 0.08279

Question: What about the dihydroorotate [1] of the same compound?
Answer: 0.2809

Question: And the orotate [1]?
Answer: 0.03682

Question: And the DLH [1]?
Answer: 0.1005

Question: What about the DLS/SDL/SID [1] of the same compound?
Answer: 0.08855

Question: What about the PD [1] of the same compound?
Answer: 0.1297

Question: And the PEE [1]?
Answer: 0.04353

Question: What about the PVNF [1] of the same compound?
Answer: 0.1047

Question: What about the 3-phosphoglycerate [1] of the same compound?
Answer: 0.09132

Question: And the ADP-D-glucose [1]?
Answer: 0.03984

Question: And the ATP [1]?
Answer: 0.0738

Question: What about the CDP [1] of the same compound?
Answer: 0.1835

Question: What about the D-sedoheptulose-1/7-phosphate [1] of the same compound?
Answer: 0.08985

Question: What about the FAD [1] of the same compound?
Answer: 0.03625

Question: And the GMP [1]?
Answer: 0.3386

Question: What about the “NAD+” value [1] of the same compound?
Answer: 0.04927

Question: What about the “NADP+” value [1] of the same compound?
Answer: 0.004356

Question: And the “Octoluse Bisphosphate” value [1]?
Answer: 0.06954

Question: What about the Pyroglutamic acid [1] of the same compound?
Answer: 0.3822

Question: And the UDP-D-glucose [1]?
Answer: 0.04537

Question: What about the UDP-D-glucuronate [1] of the same compound?
Answer: -0.02953

Question: And the UDP-N-acetyl-glucosamine [1]?
Answer: 0.08846

Question: And the UDP [1]?
Answer: 0.2013

Question: What about the UMP [1] of the same compound?
Answer: 0.2191

Question: And the UTP [1]?
Answer: 0.01852

Question: And the a-ketoglutarate [1]?
Answer: 0.02481

Question: What about the citrate/isocitrate [1] of the same compound?
Answer: -0.02888

Question: And the cytidine [1]?
Answer: -0.05556

Question: And the dATP [1]?
Answer: -0.009271

Question: And the dGMP/AMP [1]?
Answer: 0.09845

Question: And the fumarate [1]?
Answer: 0.08721

Question: And the glucose-1/6-phosphate [1]?
Answer: -0.03526

Question: And the glycerate [1]?
Answer: 0.2426

Question: And the guanine [1]?
Answer: 0.0471

Question: What about the guanosine [1] of the same compound?
Answer: 0.114

Question: And the hypoxanthine [1]?
Answer: -0.07881

Question: What about the indole [1] of the same compound?
Answer: 0.1523

Question: And the inosine [1]?
Answer: -0.03708

Question: What about the 2_3-Diphosphoglyceric acid [1] of the same compound?
Answer: 0.1949

Question: What about the 4-phosphopantothenate [1] of the same compound?
Answer: 0.1246

Question: And the 6-phospho-D-gluconate [1]?
Answer: 0.07439

Question: What about the FMN [1] of the same compound?
Answer: 0.2041

Question: And the IMP [1]?
Answer: -0.02839

Question: And the Pyrophosphate [1]?
Answer: 0.1402

Question: What about the Sedoheptoluse bisphosphate [1] of the same compound?
Answer: 0.05967

Question: And the cyclic-AMP [1]?
Answer: 0.07392

Question: And the glutathione disulfide [1]?
Answer: 0.1287

Question: What about the lactate [1] of the same compound?
Answer: 0.06153

Question: What about the myo-inositol [1] of the same compound?
Answer: 0.04445

Question: What about the nicotinate [1] of the same compound?
Answer: 0.03208

Question: What about the ornithine [1] of the same compound?
Answer: -0.1593

Question: And the phosphoenolpyruvate [1]?
Answer: 0.09247

Question: And the pyruvate [1]?
Answer: -0.02843

Question: And the ribose-phosphate [1]?
Answer: -0.3604

Question: And the sarcosine/alanine [1]?
Answer: 0.3511

Question: And the sn-glycerol-3-phosphate [1]?
Answer: 0.4063

Question: And the succinate/methylmalonic acid [1]?
Answer: 0.003908

Question: And the uridine [1]?
Answer: 0.1407

Question: And the xanthosine [1]?
Answer: 0.3607

Question: And the EC50 (P. falciparum)?
Answer: 25.5 nM

Question: How did the Acetyllysine [1] turn out when `Cc1ccc(-c2cc3c(nn2)-c2ccccc2C3=O)cc1` [MMV666021] was run?
Answer: -0.3916

Question: And the N-acetyl-L-ornithine [1]?
Answer: -0.1425

Question: And the N-carbamoyl-L-aspartate [1]?
Answer: 3.794

Question: And the NADPH [1]?
Answer: 1.165

Question: And the dAMP [1]?
Answer: -0.6653

Question: What about the dCMP [1] of the same compound?
Answer: -0.7362

Question: What about the dTDP [1] of the same compound?
Answer: -1.533

Question: What about the dTMP [1] of the same compound?
Answer: -1.5256

Question: And the dTTP [1]?
Answer: -1.181

Question: What about the dihydroorotate [1] of the same compound?
Answer: 4.247

Question: And the orotate [1]?
Answer: -2.195

Question: What about the DLH [1] of the same compound?
Answer: 0.5354

Question: And the DLS/SDL/SID [1]?
Answer: 0.5895

Question: And the PD [1]?
Answer: 0.02372

Question: What about the PEE [1] of the same compound?
Answer: 0.1996

Question: What about the PVNF [1] of the same compound?
Answer: 0.3334

Question: And the 3-phosphoglycerate [1]?
Answer: 0.4336

Question: What about the ADP-D-glucose [1] of the same compound?
Answer: 0.0706

Question: What about the ATP [1] of the same compound?
Answer: 0.08889

Question: What about the CDP [1] of the same compound?
Answer: -1.433

Question: What about the D-sedoheptulose-1/7-phosphate [1] of the same compound?
Answer: -0.7013

Question: And the FAD [1]?
Answer: 0.04196

Question: And the GMP [1]?
Answer: 1.198

Question: And the “NAD+” value [1]?
Answer: -0.07934

Question: What about the “NADP+” value [1] of the same compound?
Answer: 0.07896

Question: And the “Octoluse Bisphosphate” value [1]?
Answer: 0.0421

Question: And the Pyroglutamic acid [1]?
Answer: -0.4992

Question: What about the UDP-D-glucose [1] of the same compound?
Answer: 0.003691

Question: What about the UDP-D-glucuronate [1] of the same compound?
Answer: -0.1073

Question: And the UDP-N-acetyl-glucosamine [1]?
Answer: -0.2024

Question: What about the UDP [1] of the same compound?
Answer: -2.005

Question: What about the UMP [1] of the same compound?
Answer: -0.6482

Question: What about the UTP [1] of the same compound?
Answer: -1.713

Question: What about the a-ketoglutarate [1] of the same compound?
Answer: -0.6601

Question: And the citrate/isocitrate [1]?
Answer: -2.126

Question: And the cytidine [1]?
Answer: 0.5518

Question: What about the dATP [1] of the same compound?
Answer: 0.3766

Question: What about the dGMP/AMP [1] of the same compound?
Answer: -0.5358

Question: And the fumarate [1]?
Answer: 0.2361

Question: And the glucose-1/6-phosphate [1]?
Answer: 0.01993

Question: What about the glycerate [1] of the same compound?
Answer: -1.131

Question: And the guanine [1]?
Answer: -0.835

Question: And the guanosine [1]?
Answer: -1.803

Question: What about the hypoxanthine [1] of the same compound?
Answer: -0.06084

Question: And the indole [1]?
Answer: -0.09156

Question: What about the inosine [1] of the same compound?
Answer: -0.5269

Question: And the 2_3-Diphosphoglyceric acid [1]?
Answer: -0.1865

Question: What about the 4-phosphopantothenate [1] of the same compound?
Answer: -0.7776

Question: What about the 6-phospho-D-gluconate [1] of the same compound?
Answer: 0.009051

Question: And the FMN [1]?
Answer: 0.04698

Question: What about the IMP [1] of the same compound?
Answer: -0.1163

Question: And the Pyrophosphate [1]?
Answer: -0.09516

Question: What about the Sedoheptoluse bisphosphate [1] of the same compound?
Answer: -0.2318

Question: What about the cyclic-AMP [1] of the same compound?
Answer: -0.2358

Question: What about the glutathione disulfide [1] of the same compound?
Answer: -0.3199

Question: And the lactate [1]?
Answer: -0.9153

Question: And the myo-inositol [1]?
Answer: -1.23

Question: What about the nicotinate [1] of the same compound?
Answer: -1.397

Question: What about the ornithine [1] of the same compound?
Answer: 0.08018

Question: What about the phosphoenolpyruvate [1] of the same compound?
Answer: 0.1844

Question: And the pyruvate [1]?
Answer: -1.786

Question: And the ribose-phosphate [1]?
Answer: 0.5392

Question: What about the sarcosine/alanine [1] of the same compound?
Answer: -0.3874

Question: What about the sn-glycerol-3-phosphate [1] of the same compound?
Answer: 0.4697

Question: What about the succinate/methylmalonic acid [1] of the same compound?
Answer: -0.7859

Question: And the uridine [1]?
Answer: -1.3045

Question: What about the xanthosine [1] of the same compound?
Answer: -0.5693

Question: And the EC50 (P. falciparum)?
Answer: 94.4 nM
